Laboratory results as given in patent US20210346524A1, “FUSOGENIC LIPOSOMES FOR SELECTIVE IMAGING OF TUMOR CELLS” (APA- Advanced Technologies Ltd., priority 2018, published 2021).

Assay: Solubilization of fluorophore in aqueous hydration solution for liposome encapsulation
Assay type: physicochemical

- behaviour in phosphate buffered saline (PBS): creates aggregates
Structure (SMILES): CC1(C)C(/C=C/C=C/C=C/C=C2\N(CCCCS(=O)(=O)O)c3ccc4ccccc4c3C2(C)C)=[N+](CCCCS(=O)(=O)[O-])c2ccc3ccccc3c21 [ICG, indocyanine green]
